Results: ChEMBL document CHEMBL1121815, “Chemically reactive estrogens: synthesis and estrogen receptor interactions of hexestrol ether derivatives and 4-substituted deoxyhexestrol derivatives bearing alkylating functions” (J Med Chem, 1981)

What was measured:
[1] = target: T1, Estrogen receptor (Ovis aries) (UniProt P49885+Q9TU15); test: Binding affinity against estrogen receptor in lamb uterine cytosol, relative to that of [3H]estradiol; type: protein assay
[2] = target: T1, Estrogen receptor (Ovis aries); test: Inactivation of lamb uterine estrogen receptor; type: protein assay; parameters: concentration or dose not given beside the values
[3] = Half life was determined; type: ADME; conditions: rat

With CC[C@H](c1ccc(O)cc1)[C@@H](CC)c1ccc(OCCOCCCl)cc1 as the compound, how does the Binding affinity [1] read?
The Binding affinity was 0.9%.

Which Binding affinity [1] does the source give for CC[C@H](c1ccc(O)cc1)[C@@H](CC)c1ccc(OCC(C)=O)cc1 here?
Its Binding affinity is 11%.

With CC[C@H](c1ccc(O)cc1)[C@@H](CC)c1ccc(OCC(O)CCl)cc1 (stereo partly drawn) as the compound, how does the Inactivation [2] read?
Its Inactivation is 24%.

What about the Binding affinity [1] of the same compound?
Its Binding affinity is 4%.

What about the half-life [3] of the same compound?
The half-life was 30 min.

Which Inactivation [2] does the source give for CC[C@H](c1ccc(O)cc1)[C@@H](CC)c1ccc(CBr)cc1 here?
The Inactivation was 70%.

What about the Binding affinity [1] of the same compound?
Its Binding affinity is 9.3%.

What about the half-life [3] of the same compound?
Its half-life is 150 min.

With CC[C@H](c1ccc(O)cc1)[C@@H](CC)c1ccc(C(C)=O)cc1 as the compound, how does the Binding affinity [1] read?
Its Binding affinity is 4.1%.

For CC[C@H](c1ccc(O)cc1)[C@@H](CC)c1ccc(S(=O)(=O)N=[N+]=[N-])cc1, which Binding affinity [1] is on record?
Its Binding affinity is 1.8%.

Which results are given for CC[C@H](c1ccc(O)cc1)[C@@H](CC)c1ccc(C(=O)CBr)cc1?
Inactivation [2]: 44%; Binding affinity [1]: 1.1%; half-life [3]: < 30 min

For CC[C@H](c1ccc(O)cc1)[C@@H](CC)c1ccc(OC)cc1, which Binding affinity [1] is on record?
The Binding affinity was 19%.

For C=CCc1cc([C@@H](CC)[C@@H](CC)c2ccc(O)cc2)ccc1O, which Binding affinity [1] is on record?
The Binding affinity was 54%.

Which Binding affinity [1] does the source give for CC[C@H](c1ccc(O)cc1)[C@@H](CC)c1ccc(OCC(=O)O)cc1 here?
The Binding affinity was 0.12%.

For CC[C@H](c1ccc(O)cc1)[C@@H](CC)c1ccc(CO)cc1, which Binding affinity [1] is on record?
Its Binding affinity is 40%.

Which Binding affinity [1] does the source give for CC[C@H](c1ccc(O)cc1)[C@@H](CC)c1ccc(OCC(=O)C=[N+]=[N-])cc1 here?
The Binding affinity was 2%.

Which Inactivation [2] does the source give for CC[C@H](c1ccc(O)cc1)[C@@H](CC)c1ccc(OCC(O)CBr)cc1 (stereo partly drawn) here?
Its Inactivation is 36%.

And the Binding affinity [1]?
Its Binding affinity is 3.2%.

What about the half-life [3] of the same compound?
The half-life was 30 min.

With CC[C@H](c1ccc(O)cc1)[C@@H](CC)c1ccc(C(=O)CCl)cc1 as the compound, how does the Inactivation [2] read?
Its Inactivation is 29%.

And the Binding affinity [1]?
The Binding affinity was 0.44%.

And the half-life [3]?
The half-life was 30 min.

For CC[C@H](c1ccc(O)c(CCCO)c1)[C@@H](CC)c1ccc(O)cc1, which Binding affinity [1] is on record?
The Binding affinity was 12%.

For CCOC(=N)c1ccc([C@H](CC)[C@H](CC)c2ccc(O)cc2)cc1, which Binding affinity [1] is on record?
The Binding affinity was 1.9%.

For CCOCc1ccc([C@H](CC)[C@H](CC)c2ccc(O)cc2)cc1, which Binding affinity [1] is on record?
The Binding affinity was 4.9%.

For CC[C@H](c1ccc(O)cc1)[C@@H](CC)c1ccc(OCC(=O)CBr)cc1, which Inactivation [2] is on record?
The Inactivation was 24%.

What about the Binding affinity [1] of the same compound?
Its Binding affinity is 9.5%.

And the half-life [3]?
Its half-life is under 30 min.

Which Inactivation [2] does the source give for CC[C@H](c1ccc(O)cc1)[C@@H](CC)c1ccc(OCC(=O)CCl)cc1 here?
The Inactivation was 31%.

And the Binding affinity [1]?
The Binding affinity was 10%.

And the half-life [3]?
Its half-life is 15 min.

Which Binding affinity [1] does the source give for CC[C@H](c1ccc(O)cc1)[C@@H](CC)c1ccc(OCC(C)O)cc1 (stereo partly drawn) here?
The Binding affinity was 4.3%.

With CC[C@H](c1ccc(O)cc1)[C@@H](CC)c1ccc(S(=O)(=O)F)cc1 as the compound, how does the Inactivation [2] read?
The Inactivation was 24%.

What about the Binding affinity [1] of the same compound?
Its Binding affinity is 0.33%.

And the half-life [3]?
The half-life was 60 min.

For CC[C@H](c1ccc(O)cc1)[C@@H](CC)c1ccc(N)cc1, which Binding affinity [1] is on record?
The Binding affinity was 95%.

For CCOC(=O)COc1ccc([C@H](CC)[C@H](CC)c2ccc(O)cc2)cc1, which Binding affinity [1] is on record?
Its Binding affinity is 2.2%.

For C=CCOc1ccc([C@H](CC)[C@H](CC)c2ccc(O)cc2)cc1, which Binding affinity [1] is on record?
Its Binding affinity is 5.4%.

Which Inactivation [2] does the source give for CC[C@H](c1ccc(O)cc1)[C@@H](CC)c1ccc(CCl)cc1 here?
The Inactivation was 63%.

What about the Binding affinity [1] of the same compound?
The Binding affinity was 8%.

What about the half-life [3] of the same compound?
The half-life was 78 min.

With CC[C@H](c1ccc(O)cc1)[C@@H](CC)c1ccc([N+](=O)[O-])cc1 as the compound, how does the Binding affinity [1] read?
Its Binding affinity is 11%.

For CC[C@H](c1ccc(O)cc1)[C@@H](CC)c1ccc(OCC2CO2)cc1 (stereo partly drawn), which Inactivation [2] is on record?
The Inactivation was 44%.

And the Binding affinity [1]?
Its Binding affinity is 7.4%.

And the half-life [3]?
The half-life was 240 min.

For CCC(c1ccc(O)cc1)C(CC)c1ccc(OC)cc1 (stereo not drawn), which Binding affinity [1] is on record?
Its Binding affinity is 17%.

Which Binding affinity [1] does the source give for CC[C@H](c1ccc(O)cc1)[C@@H](CC)c1ccc(C(=O)O)cc1 here?
Its Binding affinity is 1.8%.

With CC[C@H](c1ccc(O)cc1)[C@@H](CC)c1ccc(C#N)cc1 as the compound, how does the Binding affinity [1] read?
The Binding affinity was 5.2%.

Which Binding affinity [1] does the source give for CC[C@H](c1ccc(O)cc1)[C@@H](CC)c1ccc(N=[N+]=[N-])cc1 here?
The Binding affinity was 5.7%.

With CC[C@H](c1ccc(O)cc1)[C@@H](CC)c1ccc(OCCO)cc1 as the compound, how does the Binding affinity [1] read?
Its Binding affinity is 21%.

Which Binding affinity [1] does the source give for CC[C@H](c1ccc(O)cc1)[C@@H](CC)c1ccc(OCC(O)CO)cc1 (stereo partly drawn) here?
The Binding affinity was 6.9%.
